We go through two compounds from patent publication US20200239530A1, “COMPOUNDS AND METHODS OF MODULATING PROTEIN DEGRADATION” (Vividion Therapeutics, Inc., priority 2017, published 2020).

Experiment [1] addresses T1, RPUSD3 RNA pseudouridylate synthase domain-containing pro (Homo sapiens, UniProt Q6P087).
T1 construct: Cells were resuspended in cold PBS on ice and sonicated with a probe sonicator to achieve lysis; endogenous in cells
T1 sequence (Q6P087 26-351): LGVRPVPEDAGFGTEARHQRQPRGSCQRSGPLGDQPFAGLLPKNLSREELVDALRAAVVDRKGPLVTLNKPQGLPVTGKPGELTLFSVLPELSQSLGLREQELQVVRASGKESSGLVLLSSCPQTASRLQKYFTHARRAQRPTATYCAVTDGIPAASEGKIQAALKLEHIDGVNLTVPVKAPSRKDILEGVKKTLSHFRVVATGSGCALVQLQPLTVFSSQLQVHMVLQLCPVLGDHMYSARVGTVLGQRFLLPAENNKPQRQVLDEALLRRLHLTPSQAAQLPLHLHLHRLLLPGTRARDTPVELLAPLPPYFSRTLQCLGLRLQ
In words: Cysteine liganding, probe competition. In kind it is binding. The procedure, abridged:
(§1)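 Lysates from probe-sonicated cells in PBS (5 mg/ml proteome) were exposed to compound for 1 hr at 25° C, then labelled with desthiobiotin iodoacetamide probe (10 mM stock) for 1 hr at 25° C. Probe-tagged peptides were streptavidin-enriched after trypsin digestion.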

For experiment [2], the target named is T2, DDX20 Probable ATP-dependent RNA helicase DDX20 (Homo sapiens, UniProt Q9UHI6).
T2 construct: 200 μL of lysate containing 5 mg/ml proteome was treated with 2 μL of 100× compound stock; endogenous in cells
T2 sequence (Q9UHI6 1-824): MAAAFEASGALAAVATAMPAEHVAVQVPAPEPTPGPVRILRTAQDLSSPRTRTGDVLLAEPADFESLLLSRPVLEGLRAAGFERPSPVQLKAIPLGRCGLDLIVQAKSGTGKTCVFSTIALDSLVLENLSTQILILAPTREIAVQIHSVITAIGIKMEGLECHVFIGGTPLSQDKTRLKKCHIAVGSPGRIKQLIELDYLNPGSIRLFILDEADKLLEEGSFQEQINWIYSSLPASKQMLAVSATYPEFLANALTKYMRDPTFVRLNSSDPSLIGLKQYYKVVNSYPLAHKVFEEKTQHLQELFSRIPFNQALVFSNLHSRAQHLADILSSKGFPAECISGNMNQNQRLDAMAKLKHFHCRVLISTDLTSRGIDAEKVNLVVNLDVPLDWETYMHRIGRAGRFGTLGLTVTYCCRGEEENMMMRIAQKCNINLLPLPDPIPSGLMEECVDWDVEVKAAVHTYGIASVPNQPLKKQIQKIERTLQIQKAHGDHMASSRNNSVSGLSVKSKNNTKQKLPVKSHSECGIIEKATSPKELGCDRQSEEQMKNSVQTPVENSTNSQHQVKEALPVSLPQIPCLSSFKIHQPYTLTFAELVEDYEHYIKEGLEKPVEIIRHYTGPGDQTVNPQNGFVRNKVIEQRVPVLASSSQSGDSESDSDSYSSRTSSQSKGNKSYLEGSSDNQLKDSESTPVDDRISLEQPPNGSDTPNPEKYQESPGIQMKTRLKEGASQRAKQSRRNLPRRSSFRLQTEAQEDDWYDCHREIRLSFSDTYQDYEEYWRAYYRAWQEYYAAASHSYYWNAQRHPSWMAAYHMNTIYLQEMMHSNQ
Description: Cysteine liganding, probe competition. In kind it is binding. The gist of the method: as §1

Take `COc1ccc2c(c1)CCCN2C(=O)CCl` [KB02]: the Liganded result in experiment [1] (RPUSD3 Res# 147, uniprot Q6P087) is given as “YES”; in experiment [2] (DDX20 Res# 577, uniprot Q9UHI6) it was “YES”.
In the case of `O=C(CCl)Nc1cc(C(F)(F)F)cc(C(F)(F)F)c1` [KBO3], in experiment [1] (uniprot Q6P087), the “100 Max” value turned out to be 14.63, the 100 ave is given as 9.07, the “500 Max” value is given as 49.47 and the 500 ave stood at 49.47. Besides, in experiment [2] (uniprot Q9UHI6), the “100 Max” value was 0.85, the 100 ave was −6.7225, the “500 Max” value was found to be 37.31 and the 500 ave is 31.49.
